Results taken from patent US20220387375A1, “TRPV1 ACTIVATION-MODULATING COMPLEX MIXTURES OF CANNABINOIDS AND/OR TERPENES” (GBS Global Biopharma, Inc., priority 2018, published 2022).

What was measured:
Assay type in all cases: cell-based
TRPV1 = target: T1, TRPV1 (Rattus norvegicus, UniProt O35433); assay: Bulk calcium assay (Fluo-4) in HEK-TRPV1 overexpressing cells; conditions: bulk calcium assay; TRPV1; mean (SD)
T1 construct: FLAG; expressed in transfected cells
Procedure: (§1) Cells were washed and incubated with 0.2 micromolar Fluo-4 for 30 minutes at 37° C. in a standard modified Ringer's solution of the following composition (in mM): NaCl 145, KCl 2.8, CsCl 10, CaCl2 10, MgCl2 2, glucose 10, Hepes·NaOH 10, pH 7.4, 330 mOsm. Cells were transferred to 96-well plates at 50,000 cells/well and stimulated as indicated. Calcium signals were acquired using a Flexstation 3 (Molecular Devices, Sunnydale, USA). Data was analyzed using SoftMax® Pro 5 (Molecular Devices). Where indicated, nomically calcium-free external conditions were achieved by the preparation of 0 mM CaCl2 Ringer solution containing 1 mM EGTA.
The cell culture system described in U.S. patent application Ser. No. 15/986,316 was used to test the TRPV1-mediated calcium response to various terpenes. The HEK293 cell line was stably transfected with the pcDNA6TR (Invitrogen, CA) plasmid (encoding the tetracycline-sensitive TREx repressor protein), and was maintained in DMEM+10% fetal bovine serum (inactivated at 55° C. for 1 h)+2 mM glutamine in humidified 5% CO2 atmosphere at 37° C. Selection pressure on the TRex 293 cells was maintained by continuous culture in 10 μg/ml Blasticidin (Sigma, St Louis, Mo.).
For production of TRex HEK293 cells with inducible expression of TRPV1, parental cells were electroporated with the rat TRPV1 cDNA in the pcDNA4TO vector and clonal cell lines were selected by limiting dilution in the presence of 400 μg/ml zeocin (Invitrogen, CA). TRPV1 expression was induced using 1 μg/ml tetracycline for 16 h at 37° C. Stable lines were screened for inducible protein expression using anti-FLAG Western blot, and inducible expression was confirmed.
Calcium responses mediated by TRPV1 were tested by calcium assay in the cell culture system. Cells were washed and incubated with 0.2 μM fluo-4 acetoxymethyl ester (“Fluo-4”) for 30 minutes at 37° C. in a standard modified Ringer's solution of the following composition (in mM): NaCl 145, KCl2.8, CsCl10, CaCl2 10, MgCl2 2, glucose 10, Hepes·NaOH 10, pH 7.4, 330 mOsm. Cells were transferred to 96-well plates at 50,000 cells/well and stimulated as indicated. The terpenes used were alpha-bisabool, alpha-pinene, myrcene, camphene, linalool, ocimene, humulene, beta-caryophyllene, beta-pinene, limonene, and nerolidol. The terpenes were diluted in DMSO and added to the wells to a final concentration of 10 μM. Vehicle (DMSO) alone was run as a negative control and subtracted from the terpene traces. Calcium signals were acquired using a Flexstation 3 (Molecular Devices, Sunnydale, USA). Data was analyzed using SoftMax® Pro 5 (Molecular Devices).
(§2) Calcium responses mediated by TRPA1, TRPM8, TRPV2, and TRPV1 were tested by calcium assay in the cell culture system. Cells were washed and incubated with 0.2 μM fluo-4 acetoxymethyl ester (“Fluo-4”) for 30 minutes at 37° C. in a standard modified Ringer's solution of the following composition (in mM): NaCl 145, KCl 2.8, CsCl 10, CaCl2 10, MgCl2 2, glucose 10, Hepes·NaOH 10, pH 7.4, 330 mOsm. Cells were transferred to 96-well plates at 50,000 cells/well and stimulated with 10 μM myrcene diluted in DMSO. Vehicle (DMSO) was used as a negative control. Vehicle traces were subtracted from the myrcene traces for each cell line.
As shown in FIGS. 16A-H, a variety of cannabinoids were capable of initiating Ca^2+ fluxes in HEK-TRPV1 overexpressing cells, except for cannabigerol and cannabinol. Comparative responses to a single dose (10 μM concentration) of a variety of cannabinoids were made in the presence of 1 mM external Ca^2+, which are population-based, or bulk Ca^2+, measurements with each trace representing averaged triplicates of 100,000 cells per sample. […] For each of the cannabinoid compounds, dose responses at the population level were performed. […] The lower limit of detectable calcium responses in this system varied from 10-100 nM (CBDV, CBGA) to 1-10 μM.

TRPM8 = target: T2, TRPM8 (Homo sapiens, UniProt Q7Z2W7); assay: Bulk calcium assay (Fluo-4) in HEK cells overexpressing TRPM8
T2 construct: host or cells: HEK TRex293
T2 sequence (Q7Z2W7 whole entry): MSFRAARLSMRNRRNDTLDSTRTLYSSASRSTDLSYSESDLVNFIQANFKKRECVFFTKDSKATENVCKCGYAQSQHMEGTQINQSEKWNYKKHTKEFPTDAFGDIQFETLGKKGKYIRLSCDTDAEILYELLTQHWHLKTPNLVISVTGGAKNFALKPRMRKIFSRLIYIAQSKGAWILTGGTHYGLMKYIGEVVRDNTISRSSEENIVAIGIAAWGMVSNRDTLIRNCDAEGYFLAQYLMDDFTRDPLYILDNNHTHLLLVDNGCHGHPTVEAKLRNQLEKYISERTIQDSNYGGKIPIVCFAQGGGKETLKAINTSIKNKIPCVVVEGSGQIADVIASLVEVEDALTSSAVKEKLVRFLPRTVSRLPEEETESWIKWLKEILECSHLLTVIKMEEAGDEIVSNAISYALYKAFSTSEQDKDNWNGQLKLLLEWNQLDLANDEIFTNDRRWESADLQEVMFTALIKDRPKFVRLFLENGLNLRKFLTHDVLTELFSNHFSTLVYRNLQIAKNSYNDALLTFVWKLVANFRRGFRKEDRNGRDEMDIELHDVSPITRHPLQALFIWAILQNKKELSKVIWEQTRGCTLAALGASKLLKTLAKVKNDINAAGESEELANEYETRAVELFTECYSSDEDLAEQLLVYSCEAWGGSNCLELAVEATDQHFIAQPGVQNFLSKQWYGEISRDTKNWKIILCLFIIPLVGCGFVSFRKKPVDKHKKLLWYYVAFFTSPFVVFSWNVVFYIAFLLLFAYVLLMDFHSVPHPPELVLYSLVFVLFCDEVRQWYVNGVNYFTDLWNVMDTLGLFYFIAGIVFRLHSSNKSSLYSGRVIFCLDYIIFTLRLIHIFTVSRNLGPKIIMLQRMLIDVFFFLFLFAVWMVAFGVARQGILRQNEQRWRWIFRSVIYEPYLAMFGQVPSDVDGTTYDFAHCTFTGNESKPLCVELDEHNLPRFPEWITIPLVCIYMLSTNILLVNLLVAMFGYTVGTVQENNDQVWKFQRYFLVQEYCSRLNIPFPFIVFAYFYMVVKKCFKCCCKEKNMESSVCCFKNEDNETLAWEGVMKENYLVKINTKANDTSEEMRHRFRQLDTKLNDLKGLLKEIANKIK
Procedure: (§3) HEK TRexTRPV1 were cultured in DMEM, 10% Fetal Bovine Serum, 2 mM Lglutamine, 10 μg/ml Blasticidin (Calbiochem, San Diego Calif.), 400 μg/ml Zeocin (InvivoGen, San Diego Calif.), where indicated transgene expression was induced using 1 μg/ml Tetracycline for 16-24 hrs. Unless otherwise indicated, basal expression of TRPV1 without induction was sufficient for these studies, and comparisons were made to untransfected HEK where needed. HEKTRex293 over-expressing human TRPV2, human TRPA1 and human TRPM8 were obtained from SB Drug Discovery (Glasgow, Scotland) and cultured as described above. The cannabinoids and terpenes were assayed in HEK cells that have been transfected with the TRPV1 ion channel protein. These cells are called HEK293-V1 cells.
as §1, §2
(§4) The potential for different cannabinoids to target specific TRP channels, or to co-target more than one channel type, are of potential therapeutic options for the treatment and management of pain. Comparison of the impacts of a variety of cannabinoid on overexpression systems for TRPV2, TRPM8, and TRPA1 were performed in a side-by-side fashion, under bulk calcium assays where the measurements with each trace representing averaged triplicates of 100,000 cells per sample. As shown in FIGS. 41-43 and summarized in Table 3, there are clear differences in responsiveness between cannabinoids at a single channel type than between channel types to a given cannabinoid.

TRPA1 = target: T3, TRPA1 (Homo sapiens, UniProt O75762); assay: Bulk calcium assay (Fluo-4) in HEK cells overexpressing TRPA1
T3 construct: host or cells: HEK TRex293
T3 sequence (O75762 whole entry): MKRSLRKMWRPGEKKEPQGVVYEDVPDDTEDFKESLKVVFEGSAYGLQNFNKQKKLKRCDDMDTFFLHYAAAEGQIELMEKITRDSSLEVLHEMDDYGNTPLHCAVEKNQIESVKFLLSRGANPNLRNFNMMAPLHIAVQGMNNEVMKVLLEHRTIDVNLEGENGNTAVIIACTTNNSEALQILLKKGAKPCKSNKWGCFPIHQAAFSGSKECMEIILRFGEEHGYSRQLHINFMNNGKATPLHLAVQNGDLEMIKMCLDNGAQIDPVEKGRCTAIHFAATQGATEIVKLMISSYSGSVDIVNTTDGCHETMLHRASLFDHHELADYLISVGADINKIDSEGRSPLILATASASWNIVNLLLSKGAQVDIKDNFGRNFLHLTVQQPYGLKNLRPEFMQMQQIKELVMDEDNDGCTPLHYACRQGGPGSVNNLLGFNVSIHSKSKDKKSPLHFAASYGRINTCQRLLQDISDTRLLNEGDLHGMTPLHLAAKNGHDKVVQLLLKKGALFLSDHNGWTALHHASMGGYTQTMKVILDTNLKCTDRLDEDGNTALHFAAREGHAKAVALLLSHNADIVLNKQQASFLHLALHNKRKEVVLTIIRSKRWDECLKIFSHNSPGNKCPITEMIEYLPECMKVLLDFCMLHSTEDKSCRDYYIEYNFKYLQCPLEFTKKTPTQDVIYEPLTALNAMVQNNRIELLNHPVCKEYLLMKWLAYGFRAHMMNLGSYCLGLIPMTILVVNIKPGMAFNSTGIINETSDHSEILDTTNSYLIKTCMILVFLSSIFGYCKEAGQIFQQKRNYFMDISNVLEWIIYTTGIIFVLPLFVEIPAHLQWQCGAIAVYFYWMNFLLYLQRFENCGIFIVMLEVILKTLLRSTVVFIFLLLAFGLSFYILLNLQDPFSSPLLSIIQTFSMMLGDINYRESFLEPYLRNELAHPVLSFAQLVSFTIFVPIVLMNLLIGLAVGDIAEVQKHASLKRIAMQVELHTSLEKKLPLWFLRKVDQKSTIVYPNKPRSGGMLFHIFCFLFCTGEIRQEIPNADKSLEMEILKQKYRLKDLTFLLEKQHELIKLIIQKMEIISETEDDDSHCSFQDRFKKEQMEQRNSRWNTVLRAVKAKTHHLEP
Procedure: as §3, §1, §2, §4

TRPV2 = target: T4, TRPV2 (Homo sapiens, UniProt Q9Y5S1); assay: Bulk calcium assay (Fluo-4) in HEK cells overexpressing TRPV2
T4 construct: host or cells: HEK TRex293
T4 sequence (Q9Y5S1 1-764): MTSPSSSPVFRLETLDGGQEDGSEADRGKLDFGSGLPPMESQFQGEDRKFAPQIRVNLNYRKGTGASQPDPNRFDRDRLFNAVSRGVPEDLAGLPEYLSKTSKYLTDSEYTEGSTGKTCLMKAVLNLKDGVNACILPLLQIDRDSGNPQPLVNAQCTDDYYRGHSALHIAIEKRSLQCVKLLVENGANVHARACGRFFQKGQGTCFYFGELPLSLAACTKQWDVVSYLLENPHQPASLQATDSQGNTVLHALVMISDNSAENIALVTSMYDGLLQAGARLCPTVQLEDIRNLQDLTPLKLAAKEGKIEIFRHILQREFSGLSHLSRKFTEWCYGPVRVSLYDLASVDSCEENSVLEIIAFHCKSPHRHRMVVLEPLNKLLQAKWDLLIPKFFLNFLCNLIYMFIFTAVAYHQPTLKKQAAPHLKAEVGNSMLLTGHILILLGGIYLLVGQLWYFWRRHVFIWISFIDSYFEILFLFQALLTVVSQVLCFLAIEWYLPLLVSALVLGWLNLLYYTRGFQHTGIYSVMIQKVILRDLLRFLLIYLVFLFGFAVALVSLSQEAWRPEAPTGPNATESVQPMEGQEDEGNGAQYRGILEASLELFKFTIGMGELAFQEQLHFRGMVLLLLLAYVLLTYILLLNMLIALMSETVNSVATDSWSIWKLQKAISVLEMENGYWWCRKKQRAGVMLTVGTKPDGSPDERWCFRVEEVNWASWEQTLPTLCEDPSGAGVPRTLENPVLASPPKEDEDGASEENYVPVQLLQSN
Procedure: as §3, §1, §2, §4

WT HEK293 = assay: Bulk calcium assay in untransfected WT HEK293; conditions: 10 μM, 1 mM external Ca2+

T1 sequence (O35433 whole entry): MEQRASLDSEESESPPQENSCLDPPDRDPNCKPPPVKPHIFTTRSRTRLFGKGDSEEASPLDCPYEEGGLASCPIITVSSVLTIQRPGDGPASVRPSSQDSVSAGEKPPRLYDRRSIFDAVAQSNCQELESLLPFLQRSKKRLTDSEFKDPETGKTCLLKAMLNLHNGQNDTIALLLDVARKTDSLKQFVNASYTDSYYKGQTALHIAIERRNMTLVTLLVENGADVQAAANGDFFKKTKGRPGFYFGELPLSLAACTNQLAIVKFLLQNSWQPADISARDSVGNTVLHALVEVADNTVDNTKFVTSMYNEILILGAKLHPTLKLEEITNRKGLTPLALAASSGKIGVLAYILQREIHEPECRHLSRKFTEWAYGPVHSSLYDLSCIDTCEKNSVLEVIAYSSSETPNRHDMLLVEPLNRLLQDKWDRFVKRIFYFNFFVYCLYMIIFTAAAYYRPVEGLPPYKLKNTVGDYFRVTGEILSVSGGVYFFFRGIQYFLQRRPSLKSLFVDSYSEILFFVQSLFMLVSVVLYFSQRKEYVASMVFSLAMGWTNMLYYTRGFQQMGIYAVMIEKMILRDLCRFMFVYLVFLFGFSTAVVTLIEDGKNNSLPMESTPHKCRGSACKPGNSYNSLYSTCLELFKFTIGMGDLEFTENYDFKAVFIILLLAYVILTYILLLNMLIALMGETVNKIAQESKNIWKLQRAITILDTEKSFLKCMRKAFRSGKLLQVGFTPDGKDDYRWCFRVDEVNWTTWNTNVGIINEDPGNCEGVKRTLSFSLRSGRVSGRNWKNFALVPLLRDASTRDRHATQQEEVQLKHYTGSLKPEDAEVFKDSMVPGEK

SMILES	mean maximal Ca^2+ signal RFU achieved 0-180 s (SD), TRPV1 (TRPV1)	mean maximal Ca^2+ signal RFU achieved 0-180 s (SD), TRM8 (TRPM8)	mean maximal Ca^2+ signal RFU achieved 0-180 s (SD), TRPA1 (TRPA1)	mean maximal Ca^2+ signal RFU achieved 0-180 s (SD), TRPV1 (TRPV2)	calcium response of WT HEK293 (WT HEK293)
CCCCCc1cc(O)c2c(c1)OC(C)(CCC=C(C)C)C=C2 (stereo not shown) [CBC, Cannabichromene]	3.23 (0.12) RFU	0.97 (0.03) RFU	15.13 (3.35) RFU	21.66 (1.89) RFU	
CCCCCc1cc(O)c(C/C=C(\C)CCC=C(C)C)c(O)c1C(=O)O [CBGA, Cannabigerolic Acid]	13.77 (0.31) RFU	0.3 (0.01) RFU	3.65 (1.11) RFU	0.78 (0.02) RFU	responding slightly
C=C(C)[C@@H]1CCC(C)=C[C@H]1c1c(O)cc(CCCCC)c(C(=O)O)c1O [CBDA, Cannabidiolic Acid]	4.62 (0.66) RFU	1.92 (0.04) RFU	10.09 (3.08) RFU	3.69 (1.2) RFU	
